Assay [1] concerns the target T1, catalytic domain of human Bub1 (amino acids 704-1085) (Homo sapiens, UniProt O43683).
T1 construct: catalytic domain of human Bub1 (amino acids 704-1085); His6 (N); made in house; host or cells: Hi5 insect cells
Description: Bub1 kinase assay (TR-FRET). Conditions: 10 μM ATP, 1 μM peptide substrate, median, read-out: Biological Assay 1: Bub1 kinase assay median IC50. It counts as biochemical. From the text:
Bub1-inhibitory activities of compounds described in the present invention were quantified using a time-resolved fluorescence energy transfer (TR-FRET) kinase assay which measures phosphorylation of the synthetic peptide Biotin-Ahx-VLLPKKSFAEPG (C-terminus in amide form), purchased from e.g. Biosyntan (Berlin, Germany) by the (recombinant) catalytic domain of human Bub1 (amino acids 704-1085), expressed in Hi5 insect cells with an N-terminal His6-tag and purified by affinity- (Ni-NTA) and size exclusion chromatography.
In a typical assay 11 different concentrations of each compound (0.1 nM, 0.33 nM, 1.1 nM, 3.8 nM, 13 nM, 44 nM, 0.15 μM, 0.51 μM, 1.7 μM, 5.9 μM and 20 μM) were tested in duplicate within the same microtiter plate. To this end, 100-fold concentrated compound solutions (in DMSO) were previously prepared by serial dilution (1:3.4) of 2 mM stocks in a clear low volume 384-well source microtiter plate (Greiner Bio-One, Frickenhausen, Germany), from which 50 nL of compounds were transferred into a black low volume test microtiter plate from the same supplier. Subsequently, 2 μL of Bub1 (the final concentration of Bub1 was adjusted depending on the activity of the enzyme lot in order to be within the linear dynamic range of the assay: typically ˜200 ng/mL were used) in aqueous assay buffer [50 mM Tris/HCl pH 7.5, 10 mM magnesium chloride (MgCl2), 200 mM potassium chloride (KCl), 1.0 mM dithiothreitol (DTT), 0.1 mM sodium ortho-vanadate, 1% (v/v) glycerol, 0.01% (w/v) bovine serum albumine (BSA), 0.005% (v/v) Trition X-100 (Sigma), 1× Complete EDTA-free protease inhibitor mixture (Roche)] were added to the compounds in the test plate and the mixture was incubated for 15 min at 22° C. to allow pre-equilibration of the putative enzyme-inhibitor complexes before the start of the kinase reaction, which was initiated by the addition of 3 μL 1.67-fold concentrated solution (in assay buffer) of adenosine-tri-phosphate (ATP, 10 μM final concentration) and peptide substrate (1 μM final concentration). The resulting mixture (5 μL final volume) was incubated at 22° C. during 60 min, and the reaction was stopped by the addition of 5 μL of an aqueous EDTA-solution (50 mM EDTA, in 100 mM HEPES pH 7.5 and 0.2% (w/v) bovine serum albumin) which also contained the TR-FRET detection reagents (0.2 μM streptavidin-XL665 [Cisbio Bioassays, Codolet, France] and 1 nM anti-phosho-Serine antibody [Merck Millipore, cat. #35-001] and 0.4 nM LANCE EU-W1024 labeled anti-mouse IgG antibody [Perkin-Elmer, product no. AD0077, alternatively a Terbium-cryptate-labeled anti-mouse IgG antibody from Cisbio Bioassays can be used]). The stopped reaction mixture was further incubated 1 h at 22° C. in order to allow the formation of complexes between peptides and detection reagents. Subsequently, the amount of product was evaluated by measurement of the resonance energy transfer from the Eu-chelate-antibody complex recognizing the Phosphoserine residue to the streptavidin-XL665 bound to the biotin moiety of the peptide. To this end, the fluorescence emissions at 620 nm and 665 nm after excitation at 330-350 nm were measured in GTR-FRET plate reader, e.g. a Rubystar or Pherastar (both from BMG Labtechnologies, Offenburg, Germany) or a Viewlux (Perkin-Elmer) and the ratio of the emissions (665 nm/622 nm) was taken as indicator for the amount of phosphorylated substrate. The data were normalised using two sets of (typically 32-) control wells for high- (=enzyme reaction without inhibitor=0%=Minimum inhibition) and low- (=all assay components without enzyme=100%=Maximum inhibition) Bub1 activity. IC50 values were calculated by fitting the normalized inhibition data to a 4-parameter logistic equation (Minimum, Maximum, IC50, Hill; Y=Max+(Min−Max)/(1+(X/IC50)Hill)).
On the technique in general: In TR-FRET formats the signal depends on donor and acceptor labels being close together.

A further assay has as its system HeLa cell line. Description: Proliferation assay (crystal violet staining). It counts as cell-based. Conditions: Homo sapiens, 96 h, 4 days incubation, range 0.001-10 μM, median, read-out: Biological Assay 2: Proliferation assay (HeLa cell line) median IC50. How it is done:
Cultivated tumor cells (cells were ordered from ATCC, except HeLa-MaTu and HeLa-MaTu-ADR, which were ordered from EPO-GmbH, Berlin) were plated at a density of 1000 to 5000 cells/well, depending on the growth rate of the respective cell line, in a 96-well multititer plate in 200 μL of their respective growth medium supplemented 10% fetal calf serum. After 24 h, the cells of one plate (zero-point plate) were stained with crystal violet (see below), while the medium of the other plates was replaced by fresh culture medium (200 μL), to which the test substances were added in various concentrations (0 μM, as well as in the range of 0.001-10 μM; the final concentration of the solvent DMSO was 0.5%). The cells were incubated for 4 days in the presence of test substances. Cell proliferation was determined by staining the cells with crystal violet: the cells were fixed by adding 20 μL/measuring point of an 11% glutaric aldehyde solution for 15 min at rt. After three washing cycles of the fixed cells with water, the plates were dried at rt. The cells were stained by adding 100 μL/measuring point of a 0.1% crystal violet solution (pH 3.0). After three washing cycles of the stained cells with water, the plates were dried at rt. The dye was dissolved by adding 100 μL/measuring point of a 10% acetic acid solution. Absorbtion was determined by photometry at a wavelength of 595 nm. The change of cell number, in percent, was calculated by normalization of the measured values to the aborbtion values of the zero-point plate (=0%) and the absorbtion of the untreated (0 μm) cells (=100%). The IC50 values were determined by means of a 4 parameter fit.

SMILES strings stand for the structures.

T1 sequence (O43683 704-1085): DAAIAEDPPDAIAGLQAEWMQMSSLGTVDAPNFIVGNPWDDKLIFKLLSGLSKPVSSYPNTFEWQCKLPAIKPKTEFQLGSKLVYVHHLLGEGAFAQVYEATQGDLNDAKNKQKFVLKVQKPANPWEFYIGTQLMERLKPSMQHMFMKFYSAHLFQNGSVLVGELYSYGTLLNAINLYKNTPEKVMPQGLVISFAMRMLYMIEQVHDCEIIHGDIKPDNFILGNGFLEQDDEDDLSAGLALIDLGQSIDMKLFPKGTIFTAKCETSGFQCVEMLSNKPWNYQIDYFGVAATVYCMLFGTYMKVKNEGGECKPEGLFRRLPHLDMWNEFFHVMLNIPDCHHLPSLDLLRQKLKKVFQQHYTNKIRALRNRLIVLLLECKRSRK

For `COc1c(N)nc(-c2nn(Cc3ccccc3F)c3c2CCC3)nc1Nc1ccncc1` [Example 2-1-4, 2-[1-(2-fluoro-benzyl)-1,4,5,6-tetrahydrocyclopenta [c]pyrazol-3-yl]-5-methoxy-N-(pyridin-4-yl)pyrimidin-4,6-diamine], the IC50 in assay [1] was 90 nM; in the assay on HeLa cell line, no less than 10000 nM.

`NC(=O)c1cnccc1Nc1nc(-c2nn(Cc3ccccc3F)c3c2CCC3)ncc1OCCO` [Example 2-10-1, 4-({2-[1-(2-fluorobenzyl)-1,4,5,6-tetrahydrocyclopenta[c]pyrazol-3-yl]-5-(2-hydroxyethoxyl)pyrimidin-4-yl}amino)nicotinamide]: the IC50 worked out at 70 nM in assay [1] and 50000 nM in the assay with HeLa cell line.

As to `CCOc1cc(F)c(Cn2nc(-c3ncc(OC)c(Nc4ccncc4)n3)c3c2CCC3)c(F)c1` [Example 2-1-1, 2-[1-(4-ethoxy-2,6-difluorobenzyl)-1,4,5,6-tetrahydrocyclopenta-[c]pyrazol-3-yl]-5-methoxy-N-(pyridin-4-yl)pyrimidin-4-amine], the IC50 worked out at 5 nM in assay [1] and 6000 nM in the assay with HeLa cell line.

In the case of `CCOc1cc(F)c(Cn2nc(-c3ncc(O)c(N(CCN4CCCC4)c4ccncc4)n3)c3c2CCC3)c(F)c1` [Example 2-4-2, 2-[1-(4-ethoxy-2,6-difluoro-benzyl)-1,4,5,6-tetrahydrocyclopenta [c]pyrazol-3-yl]-4-{pyridin-4-yl[2-(pyrrolidin-1-yl)ethyl]amino} pyrimidin-5-ol], the results for the IC50 (in assay [1]; in the assay on HeLa cell line) were 900 nM and no less than 10000 nM, respectively.

With `Oc1cnc(-c2nn(Cc3ccccc3F)c3c2CCC3)nc1Nc1ccncc1` [Example 2-1-13, 2-[1-(2-fluoro-benzyl)-1,4,5,6-tetrahydrocyclopenta [c]pyrazol-3-yl]-4-(pyridin-4-ylamino) pyrimidin-5-ol], the results for the IC50 (in assay [1]; in the assay on HeLa cell line) were 300 nM and no less than 10000 nM, respectively.

As to `CCOc1cc(F)c(Cn2nc(-c3ncc(OCCO)c(Nc4ccncc4)n3)c3c2CCC3)c(F)c1` [Example 2-11-2, 2-({2-[1-(4-ethoxy-2,6-difluoro-benzyl)-1,4,5,6-tetrahydrocyclopenta [c]pyrazol-3-yl]-4-(pyridin-4-ylamino)pyrimidin-5-yl}oxy) ethanol], the IC50 was found to be 4 nM in assay [1] and 4000 nM in the assay with HeLa cell line.

As for `N#Cc1cnccc1Nc1nc(-c2nn(Cc3ccccc3F)c3c2CCC3)ncc1OCCO` [Example 2-11-1, 4-({2-[1-(2-fluorobenzyl)-1,4,5,6-tetrahydrocyclopenta[c]pyrazol-3-yl]-5-(2-hydroxyethoxyl)pyrimidin-4-yl}amino)nicotinonitrile], the IC50 in assay [1] is 400 nM; with HeLa cell line, no less than 10000 nM.

As to `CCOC(=O)c1cnccc1Nc1nc(-c2nn(Cc3ccccc3F)c3c2CCC3)ncc1O` [Example 2-8-1, ethyl 4-({2-[1-(2-fluorobenzyl)-1,4,5,6-tetrahydrocyclopenta[c]pyrazol-3-yl]-5-hydroxypyrimidin-4-yl}amino)nicotinate], the IC50 in assay [1] was 30 nM; with HeLa cell line, no less than 10000 nM.

Take `COc1cnc(-c2nn(Cc3ccccc3F)c3c2CCC3)nc1Nc1ccncc1C(N)=O` [Example 2-5-1, 4-({2-[1-(2-fluorobenzyl)-1,4,5,6-tetrahydrocyclopenta[c]pyrazol-3-yl]-5-methoxypyrimidin-4-yl}amino)nicotinamide]: the IC50 in assay [1] was 10 nM; with HeLa cell line, no less than 10000 nM.

With `CCOc1cc(F)c(Cn2nc(-c3ncc(O)c(Nc4ccncc4)n3)c3c2CCC3)c(F)c1` [Example 2-2-1, 2-[1-(4-ethoxy-2,6-difluorobenzyl)-1,4,5,6-tetrahydrocyclopenta-[c]pyrazol-3-yl]-4-(pyridin-4-ylamino)pyrimidin-5-ol], the IC50 was 20 nM in assay [1] and no less than 10000 nM in the assay with HeLa cell line.

Consider `CS(=O)(=O)CCCOc1cnc(-c2nn(Cc3ccccc3F)c3c2CCC3)nc1Nc1ccncc1C(N)=O` [Example 2-3-9, 4-({2-[1-(2-fluoro-benzyl)-1,4,5,6-tetrahydrocyclopenta [c]pyrazol-3-yl]-5-[3-(methyl-sulfonyl)propoxy]pyrimidin-4-yl}amino) nicotinamide], for which the IC50 is 100 nM in assay [1] and no less than 10000 nM with HeLa cell line.

With `NC(=O)c1cnccc1N(CCO)c1nc(-c2nn(Cc3ccccc3F)c3c2CCC3)ncc1OCCO` [Example 2-10-2, 4-[{2-[1-(2-fluoro-benzyl)-1,4,5,6-tetrahydrocyclopenta [c]pyrazol-3-yl]-5-(2-hydroxy-ethoxy)pyrimidin-4-yl}(2-hydroxy-ethyl)amino] nicotinamide], the values for the IC50 (in assay [1]; with HeLa cell line) were 2000 nM and no less than 10000 nM, respectively.

On to `CCOc1cc(F)c(Cn2nc(-c3ncc(OCCN4CCCC4)c(Nc4ccncc4)n3)c3c2CCC3)c(F)c1` [Example 2-3-3, 2-[1-(4-ethoxy-2,6-difluoro-benzyl)-1,4,5,6-tetrahydrocyclopenta [c]pyrazol-3-yl]-N-(pyridin-4-yl)-5-[2-(pyrrolidin-1-yl)ethoxy] pyrimidin-4-amine], for which the IC50 in assay [1] worked out at 20 nM; in the assay with HeLa cell line, 1000 nM.

Turning to `NC(=O)c1cnccc1Nc1nc(-c2nn(Cc3ccccc3F)c3c2CCC3)ncc1O` [Example 2-1-12, 4-({2-[1-(2-fluoro-benzyl)-1,4,5,6-tetrahydrocyclopenta [c]pyrazol-3-yl]-5-hydroxy-pyrimidin-4-yl}amino) nicotinamide], the IC50 in assay [1] was 200 nM; in the assay with HeLa cell line, no less than 10000 nM.

For the compound `CS(=O)(=O)CCOc1cnc(-c2nn(Cc3ccccc3F)c3c2CCC3)nc1Nc1ccncc1C(N)=O` [Example 2-13-1, 4-({2-[1-(2-fluorobenzyl)-1,4,5,6-tetrahydrocyclopenta[c]pyrazol-3-yl]-5-[2-(methylsulfonyl)ethoxy]pyrimidin-4-yl}amino)nicotinamide], the IC50 is 30 nM in assay [1] and no less than 10000 nM in the assay with HeLa cell line.

For `COc1ccc(Cn2nc(-c3ncc(O)c(Nc4ccncc4)n3)c3c2CCC3)cc1` [Example 2-2-3, 2-[1-(4-methoxy-benzyl)-1,4,5,6-tetrahydrocyclopenta [c]pyrazol-3-yl]-4-(pyridin-4-ylamino) pyrimidin-5-ol], the values for the IC50 (in assay [1]; in the assay with HeLa cell line) were 100 nM and no less than 10000 nM, respectively.

The record behind these values is patent US9416125B2, “Substituted cycloalkenopyrazoles as BUB1 inhibitors for the treatment of cancer” (BAYER PHARMA AKTIENGESELLSCHAFT, priority 2012, dated 2016).
